Test results from article PMC8343220, “The selectivity of α‐adrenoceptor agonists for the human α1A, α1B, and α1D‐adrenoceptors” (Pharmacology Research & Perspectives, 2021).
Like-named read-outs stand apart in the source and are kept apart here. Marks after values point to notes of the source that are not given here.

Key:
[1] = molecular target: T1, human α1D‐adrenoceptor (full length) (Homo sapiens, UniProt P25100); test: ^3H‐cAMP accumulation in the presence of 10 μM forskolin, CHO‐α1D cells; assay type: cell-based; settings: CHO‐α1D cells; for cAMP (in presence of forskolin) Fold increase: fold increase of the forskolin response; for cAMP (in presence of forskolin) Log EC50: log values given negative
T1 construct: human α1D‐adrenoceptor (full length) were used; expressed in transfected cells; host or cells: CHO-K1
T1 sequence (P25100 1-572): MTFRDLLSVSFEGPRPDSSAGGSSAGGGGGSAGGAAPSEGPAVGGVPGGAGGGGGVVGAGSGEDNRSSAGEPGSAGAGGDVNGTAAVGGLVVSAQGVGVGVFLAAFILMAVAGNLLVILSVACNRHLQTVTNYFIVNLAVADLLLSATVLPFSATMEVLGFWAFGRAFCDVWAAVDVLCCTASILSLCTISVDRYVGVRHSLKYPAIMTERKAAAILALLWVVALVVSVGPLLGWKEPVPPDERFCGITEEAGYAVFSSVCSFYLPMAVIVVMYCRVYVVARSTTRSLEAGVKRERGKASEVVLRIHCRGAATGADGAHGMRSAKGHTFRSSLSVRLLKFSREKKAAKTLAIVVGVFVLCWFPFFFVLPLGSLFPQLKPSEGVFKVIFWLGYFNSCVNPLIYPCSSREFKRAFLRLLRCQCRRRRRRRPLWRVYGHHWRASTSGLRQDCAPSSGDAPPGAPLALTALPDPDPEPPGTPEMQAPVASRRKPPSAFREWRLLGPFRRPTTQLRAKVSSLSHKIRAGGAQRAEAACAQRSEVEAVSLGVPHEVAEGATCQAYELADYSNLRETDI

[2] = molecular target: T2, human α1B‐adrenoceptor (Homo sapiens, UniProt P35368); test: Intracellular free calcium mobilization, CHO‐α1B cells; assay type: cell-based
T2 construct: expressed in transfected cells; host or cells: CHO-K1
T2 sequence (P35368 1-520): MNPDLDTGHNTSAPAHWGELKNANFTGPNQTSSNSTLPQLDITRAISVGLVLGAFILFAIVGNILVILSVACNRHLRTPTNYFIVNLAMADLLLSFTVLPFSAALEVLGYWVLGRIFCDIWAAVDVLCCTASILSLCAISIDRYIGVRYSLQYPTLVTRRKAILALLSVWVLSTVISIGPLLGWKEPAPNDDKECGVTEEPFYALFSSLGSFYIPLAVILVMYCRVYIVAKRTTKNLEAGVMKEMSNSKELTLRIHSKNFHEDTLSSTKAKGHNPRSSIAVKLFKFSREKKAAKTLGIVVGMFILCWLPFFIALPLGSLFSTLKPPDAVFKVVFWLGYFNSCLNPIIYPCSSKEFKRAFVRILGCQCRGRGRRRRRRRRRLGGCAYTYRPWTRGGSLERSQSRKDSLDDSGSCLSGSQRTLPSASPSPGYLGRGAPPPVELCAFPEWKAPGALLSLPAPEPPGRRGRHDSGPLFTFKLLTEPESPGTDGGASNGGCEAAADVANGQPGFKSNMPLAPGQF

[3] = molecular target: T2, human α1B‐adrenoceptor; test: ^3H‐cAMP accumulation, CHO‐α1B cells; assay type: cell-based; settings: CHO‐α1B cells
[4] = molecular target: T2, human α1B‐adrenoceptor; test: ^3H‐cAMP accumulation in the presence of 10 μM forskolin, CHO‐α1B cells; assay type: cell-based; settings: CHO‐α1B cells; for cAMP accumulation (in presence of forskolin) Fold increase: fold increase of the forskolin response
[5] = molecular target: T2, human α1B‐adrenoceptor; test: ^3H‐prazosin whole‐cell radioligand binding, CHO‐α1B cells
[6] = molecular target: T3, human α1A‐adrenoceptor (Homo sapiens, UniProt P35348); test: ^3H‐cAMP accumulation, CHO‐α1A cells; assay type: cell-based; settings: CHO‐α1A cells; for cAMP accumulation Log EC50: 5 h; for cAMP accumulation % forskolin: % of 10 µM forskolin response
T3 construct: expressed in transfected cells; host or cells: CHO-K1
T3 sequence (P35348 1-466): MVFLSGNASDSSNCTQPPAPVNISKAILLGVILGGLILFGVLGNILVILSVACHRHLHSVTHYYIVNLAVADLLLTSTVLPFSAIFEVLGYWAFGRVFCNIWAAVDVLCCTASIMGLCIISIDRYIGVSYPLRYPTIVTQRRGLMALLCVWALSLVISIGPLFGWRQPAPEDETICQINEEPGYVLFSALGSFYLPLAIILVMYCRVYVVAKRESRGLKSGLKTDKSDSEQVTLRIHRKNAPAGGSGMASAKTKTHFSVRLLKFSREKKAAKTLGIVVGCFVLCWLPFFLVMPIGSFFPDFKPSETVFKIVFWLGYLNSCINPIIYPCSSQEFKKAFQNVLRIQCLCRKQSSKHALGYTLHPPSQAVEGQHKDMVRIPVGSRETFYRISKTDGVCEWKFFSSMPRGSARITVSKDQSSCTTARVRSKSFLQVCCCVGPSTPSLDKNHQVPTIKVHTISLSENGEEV

[7] = molecular target: T1, human α1D‐adrenoceptor (full length); test: ^3H‐prazosin whole‐cell radioligand binding, CHO‐α1D cells
[8] = molecular target: T1, human α1D‐adrenoceptor (full length); test: ^3H‐cAMP accumulation, CHO‐α1D cells; assay type: cell-based; settings: cAMP accumulation without forskolin
[9] = molecular target: T3, human α1A‐adrenoceptor; test: ERK1/2‐phosphorylation (Surefire Alphascreen), CHO‐α1A cells; assay type: cell-based
[10] = molecular target: T1, human α1D‐adrenoceptor (full length); test: Intracellular free calcium mobilization, CHO‐α1D cells; assay type: cell-based
[11] = molecular target: T2, human α1B‐adrenoceptor; test: ERK1/2‐phosphorylation (Surefire Alphascreen), CHO‐α1B cells; assay type: cell-based
[12] = molecular target: T3, human α1A‐adrenoceptor; test: ^3H‐cAMP accumulation in the presence of 10 μM forskolin, CHO‐α1A cells; assay type: cell-based; settings: CHO‐α1A cells; for cAMP accumulation (in presence of forskolin) Log EC50: 10 μM forskolin; for cAMP accumulation (in presence of forskolin) Fold increase: fold increase of the forskolin response
[13] = molecular target: T3, human α1A‐adrenoceptor; test: Intracellular free calcium mobilization, CHO‐α1A cells; assay type: cell-based
[14] = molecular target: T3, human α1A‐adrenoceptor; test: ^3H‐prazosin whole‐cell radioligand binding, CHO‐α1A cells
[15] = molecular target: T1, human α1D‐adrenoceptor (full length); test: ERK1/2‐phosphorylation (Surefire Alphascreen), CHO‐α1D cells; assay type: cell-based
[16] = CHO‐α1D cells, log values given negative

SMILES: CCc1cccc(CC)c1NC1=NCCN1 [ST‐91]
- cAMP (in presence of forskolin) Fold increase [1]: No response
- cAMP (in presence of forskolin) Log EC50 [1]: No response
- Intracellular calcium release Log EC50 ([2]; CHO‐α1B cells, given as log EC50 (negative numbers)): −8.13 ± 0.17
- Log efficacy ratio KD /EC50 ([2]; CHO‐α1B cells, intrinsic efficacy ratio, KD from binding / EC50 calcium, log): 3.74
- Intracellular calcium release % ionomycin ([2]; CHO‐α1B cells, maximal response as % of 10 µM ionomycin response): 62.0 ± 2.1%
- cAMP accumulation Log EC50 [3]: −6.52 ± 0.04
- cAMP accumulation % forskolin ([3]; % forskolin maximum response): 30.4 ± 3.5%
- cAMP accumulation (in presence of forskolin) Fold increase [4]: 2.34 ± 0.09 fold
- cAMP accumulation (in presence of forskolin) Log EC50 [4]: −7.23 ± 0.07
- Log KD, ^3H‐prazosin binding ([5]; CHO‐α1B cells, whole‐cell binding (from Table 1), given as log KD (negative numbers)): −4.39
- Log KD α1B, ^3H‐prazosin whole cell binding ([5]; CHO‐α1B cells, given as log KD (negative), mean ± SEM): −4.39 ± 0.04
- cAMP accumulation Log EC50 [6]: −6.80 ± 0.05
- cAMP accumulation % forskolin [6]: 108.2 ± 12.5%
- 3H‐prazosin binding Log KD ([7]; CHO‐α1D cells, whole‐cell binding (from Table 1), log values given negative): −5.24
- Log KD α1D, ^3H‐prazosin whole cell binding ([7]; CHO‐α1D cells, given as log KD (negative), mean ± SEM, 'early plateau' = specific binding not fully inhibited): −5.24 ± 0.09
- Affinity selectivity ratio α1B vs α1D ([7]; higher affinity for α1D than α1B): 7.1 fold
- cAMP Log EC50 [8]: No response
- ERK1/2‐phosphorylation Log EC50 ([9]; CHO‐α1A cells, 2–4 min, ^a bi‐phasic: initial stimulatory part, ^b also active in parent CHO cells): −8.70 ± 0.06
- ERK1/2‐phosphorylation % PDBu ([9]; CHO‐α1A cells, % of 10 µM PDBu, ^a bi‐phasic: initial stimulatory part): 79.5 ± 5.2%
- Log efficacy ratio KD /EC50 ([10]; CHO‐α1D cells, intrinsic efficacy ratio, binding KD / calcium EC50): 1.10
- Intracellular calcium release Log EC50 [10, 16]: −6.34 ± 0.15
- Intracellular calcium release % ionomycin ([10]; CHO‐α1D cells, maximal response as % of 10 µM ionomycin): 6.3 ± 1.6%
- ERK1/2‐phosphorylation Log EC50 ([11]; CHO‐α1B cells, for bi‐phasic responses the initial stimulatory part): −7.33 ± 0.12
- ERK1/2‐phosphorylation % PDBu ([11]; CHO‐α1B cells, maximal response as % PDBu response, for bi‐phasic responses the initial stimulatory part): 83.6 ± 8.9%
- cAMP accumulation (in presence of forskolin) Log EC50 [12]: −7.86 ± 0.14
- cAMP accumulation (in presence of forskolin) Fold increase [12]: 2.17 ±.10 fold
- Log efficacy ratio KD /EC50 ([13]; CHO‐α1A cells, binding KD and calcium EC50): 3.14
- Intracellular calcium release Log EC50 ([13]; CHO‐α1A cells, given as log EC50 (negative)): −9.08 ± 0.11
- Intracellular calcium release % ionomycin ([13]; CHO‐α1A cells, maximal response as % of 10 µM ionomycin): 64.6 ± 2.6%
- Log KD α1A, ^3H‐prazosin whole cell binding ([14]; CHO‐α1A cells, given as log KD (negative), mean ± SEM): −5.94 ± 0.01
- Affinity selectivity ratio α1A vs α1B ([14]; higher affinity for α1A than α1B): 35.5 fold
- Affinity selectivity ratio α1A vs α1D ([14]; higher affinity for α1A than α1D): 5.0 fold
- ERK1/2‐phosphorylation Log EC50 [15, 16]: −5.23 ± 0.21
- ERK1/2‐phosphorylation % PDBu ([15]; CHO‐α1D cells, maximal response as % of PDBu): 21.1 ± 4.4%

SMILES: CC(N)C(O)c1ccc(O)c(O)c1 (stereo not drawn) [α‐Methylnorepinephrine]
- cAMP (in presence of forskolin) Fold increase [1]: 1.23 ± 0.06
- cAMP (in presence of forskolin) Log EC50 [1]: −6.05 ± 0.12
- Intracellular calcium release % ionomycin [2]: 69.1 ± 2.6%
- Intracellular calcium release Log EC50 [2]: −8.10 ± 0.11
- Log efficacy ratio KD /EC50 [2]: >5.10
- cAMP accumulation % forskolin at 100 µM ([3]; response at 100 µM ligand (no EC50 given)): 129.7 ± 20.5%
- cAMP accumulation (in presence of forskolin) Fold increase [4]: 3.09 ± 0.21 fold
- cAMP accumulation (in presence of forskolin) Log EC50 [4]: −5.56 ± 0.05
- Log IC50 α1B, ^3H‐prazosin whole cell binding [5]: IC50>−3
- cAMP accumulation Log EC50 [6]: −5.09 ± 0.06
- cAMP accumulation % forskolin [6]: 166.8 ± 7.4%
- 3H‐prazosin binding Log KD [7]: −4.84
- Affinity selectivity ratio α1A vs α1D [7]: 3.3 fold
- Affinity selectivity ratio α1B vs α1D [7]: >69.2 fold
- Log KD α1D, ^3H‐prazosin whole cell binding [7]: −4.84 ± 0.14^early plateau
- cAMP Log EC50 [8]: No response
- ERK1/2‐phosphorylation % PDBu [9]: 87.5 ± 6.3%
- ERK1/2‐phosphorylation Log EC50 [9]: −6.86 ± 0.12 ^a
- Intracellular calcium release % ionomycin [10]: 29.9 ± 3.6%
- Intracellular calcium release Log EC50 [10]: −7.02 ± 0.10
- Log efficacy ratio KD /EC50 [10]: 2.18
- ERK1/2‐phosphorylation % PDBu [11]: 90.6 ± 4.4%
- ERK1/2‐phosphorylation Log EC50 [11]: −6.75 ± 0.13
- cAMP accumulation (in presence of forskolin) Log EC50 [12]: −5.74 ± 0.10
- cAMP accumulation (in presence of forskolin) Fold increase [12]: 2.49 ± 0.05 fold
- Intracellular calcium release % ionomycin [13]: 65.2 ± 2.6%
- Intracellular calcium release Log EC50 [13]: −7.69 ± 0.07
- Log efficacy ratio KD /EC50 [13]: 3.37
- Affinity selectivity ratio α1A vs α1B [14]: >20.9 fold
- Log KD α1A, ^3H‐prazosin whole cell binding [14]: −4.32 ± 0.04
- ERK1/2‐phosphorylation % PDBu [15]: 27.7 ± 4.9%
- ERK1/2‐phosphorylation Log EC50 [15]: −5.74 ± 0.11
